Assay results as given in patent publication US11485720B2, “Anti-infective agents” (University of Dundee, priority 2016, dated 2022).

How the values were obtained:
[1] = biological target: T1, Plasmodium falciparum lysyl t-RNA synthetase (Pf-KRS1) (Plasmodium falciparum, UniProt Q8IDJ8); experiment: Pf-KRS1 inhibition biochemical assay (Kinase-Glo, ATP depletion); settings: read-out: Pf-KRS pIC50 (converted)
T1 construct: Pf KRS1-; made in house; host or cells: E. coli BL21 (DE3)
Excerpt: Plasmodium falciparum Lysine tRNA Synthetase (KRS1) Biochemical Assay Methodology.
Lysine tRNA Synthetase (KRS1) is an enzyme which catalyses the esterification of L-Lysine to the appropriate transfer ribonucleic acid (tRNA), to form an aminoacyl-tRNA. Once the tRNA is charged, a ribosome transfers the amino acid from the tRNA onto a growing peptide, according to the genetic code.
The substrates of this reaction are L-lysine, and adenosine triphosphate (ATP), the overall reaction is: amino acid+tRNA+ATP→aminoacyl-tRNA+AMP+PPi
In this overall reaction AMP is adenosine monophosphate and PP; is inorganic pyrophosphate. The reaction progression in a biochemical assay can be tracked by the depletion of one of the substrates, in the case of this invention, ATP. This was done using the proprietary assay kit, Kinase Glo® Assay which is a luminescent kinase assay platform suitable for monitoring kinase activities using up to 10 μm ATP which is commercially available from the Promega Corporation of Madison, Wis., USA. The Kinase-Glo® Assay was performed in a single well of a multiwell plate by adding a volume of Kinase-Glo® Reagent equal to the volume of a completed kinase reaction and measuring luminescence. The resulting luminescent signal is correlated with the amount of ATP present and is inversely correlated with the amount of kinase activity. As such by use of this assay methodology a reduction of the luminescent signal is relative to the reduction in ATP as the reaction progresses. A compound which inhibits the action of KRS will show no drop in the luminescent signal from assay controls.
Assays were performed using both Plasmodium falciparum and human KRS to assess any selectivity of various test compounds.
Test compounds were solubilized in DMSO at a top concentration of 10 mM and serially diluted 1 in 3 to achieve a range of final assay concentrations of 50 μM to 2.5 nM in 10 μl reaction volume.
KRS was diluted to a working concentration of 75 nM in assay buffer (25 mM HEPES, 25 mM KOH, 10 mM MgCl2.6H2O, 50 mM KCl), and the following ‘Master Mix’ prepared in assay buffer: 0.1 mg/ml BSA, 250 μM DTT, 200 μM Spermine, 0.05% NP-40, ATP 3 μM for Pf KRS1 (4 μM for Hs KRS1), 0.4 mg/ml tRNA from Yeast, 60 μM L-Lysine, 0.5 U/ml Pyrophosphatase.
Plates were incubated at room temperature for 5 h for Pf KRS (2.5 hrs for HsKRS), then the assay stopped by the addition of 10 μl of The Kinase-Glo® Reagent Assay was performed in a single well of a multiwell plate by adding a volume of Kinase-Glo® Reagent which is commercially available from the Promega Corporation of Madison, Wis., USA. The plates were incubated in the dark for a further 15 mins before being read for luminescence on a BMG PHERAstar® FSX plate reader which is a multi-mode reader for use in high-throughput screening available from BMG Labtech if Cary, N.C., USA. Data were analysed by calculating the percentage inhibition compared to the maximum and minimum assay controls. Concentration effect curves were fitted using nonlinear regression within ActivityBase and IC50 values were determined using standard protocols.

[2] = system: Plasmodium falciparum strain 3D7; experiment: Plasmodium falciparum 3D7 in vitro growth inhibition (SYBRgreen I); assay type: cell-based; settings: Plasmodium falciparum, 3D7; read-out: pEC50 for Pf 3D7 (converted)
Description: Parasite Cultures and Cytotoxicity Assay Methodology for Plasmodium falciparum. […] Growth inhibition of the Plasmodium falciparum cultures was quantified in a 10-point dose response curve with a 1 in 3 dilution series from a top assay concentration of 50 μM. This 384 well plate based fluorescence assay utilises the binding of SYBRgreen I (Thermo Fisher Scientific/Invitrogen cat. no. S7585) to double stranded DNA, which greatly increases the fluorescent signal at 528 nm after excitation at 485 nm. Mefloquine was used as a drug control to monitor the quality of the assay (Z′=0.6 to 0.8, where Z′ is a measure of the discrimination between the positive and negative controls on a screen plate). Dose-response curves were determined from a minimum of 3 independent experiments. Compound bioactivity was expressed as EC50, the effective concentration of compound causing 50% parasite death.

[3] = biological target: T2, Mycobacterium tuberculosis lysyl t-RNA synthetase (Mtb KRS) (Mycobacterium tuberculosis, UniProt P9WFU9); experiment: Mtb KRS inhibition biochemical assay (BioMol Green); settings: read-out: Mtb KRS pIC50 (converted)
T2 construct: MtbKRS1-; made in house; host or cells: E. coli BL21 (DE3)
T2 sequence (P9WFU9 whole entry): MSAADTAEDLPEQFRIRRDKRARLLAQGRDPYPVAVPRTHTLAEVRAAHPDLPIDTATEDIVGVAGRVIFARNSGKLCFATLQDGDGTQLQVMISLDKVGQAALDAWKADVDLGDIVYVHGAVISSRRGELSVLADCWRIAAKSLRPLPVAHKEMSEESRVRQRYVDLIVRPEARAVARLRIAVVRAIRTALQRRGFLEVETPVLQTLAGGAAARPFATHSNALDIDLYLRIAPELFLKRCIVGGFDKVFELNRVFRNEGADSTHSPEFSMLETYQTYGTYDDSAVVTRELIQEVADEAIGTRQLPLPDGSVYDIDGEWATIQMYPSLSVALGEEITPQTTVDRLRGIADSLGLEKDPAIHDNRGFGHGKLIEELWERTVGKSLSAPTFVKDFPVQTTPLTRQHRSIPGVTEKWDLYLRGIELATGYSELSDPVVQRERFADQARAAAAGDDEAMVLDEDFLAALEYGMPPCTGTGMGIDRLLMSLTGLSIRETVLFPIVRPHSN

Cryptosporidium parvum = experiment: In vitro Crytosporidium inhibition assay; assay type: cell-based; settings: Cryptosporidium parvum; read-out: Cryptosporidium parvum pEC50 (converted)
Excerpt: Assay Method for Measurement of In Vitro Inhibition of Crytosporidium.
These experiments were run in accordance with the method of Besssoff et. al. Antimicrob. Agents Chemother. 2013, 57:1804-1814. Results from these experiments are provided in the Experimental Results hereinafter.

Hep G2 = Hep G2 in-vitro cytotoxicity assay; assay type: cell-based; settings: Homo sapiens, HepG2, read-out: Hs HEPG2 pEC50 (converted)
Excerpt: In-vitro cytotoxicity studies can be carried out using Hep G2 (Human hepatocyte carcinoma, HPACC cat. no. 85011430) used as indicators for general mammalian cell toxicity. Hep G2 in-vitro cytotoxicity can be assessed using the assay procedure as described in “Use of a human-derived liver cell line for the detection of cytoprotective, antigenotoxic and cogenotoxic agents”, Volker Mersch-Sundermann, Siegfried Knasmüller, Xin-jiang Wu, Firouz Darroudi, Fekadu Kassie. J. Tox 198 (2004) 329-340) the contents of which are incorporated herein by reference.

Leishmania donovani [4] = experiment: Leishmania donovani intramacrophage inhibition assay (Ld-INMAC); assay type: cell-based; settings: intramacrophage amastigotes in THP-1 cells, read-out: Ld-INMAC pEC50 (converted)
Description: Assay Method for Measurement of In Vitro Inhibition of Leishmania donovani.
These experiments were run in accordance with the method as detailed herein and results from these experiments are provided in the Experimental Results hereinafter.
The intramacrophage Leishmania assay was performed as described in de Rycker et al (Antimicrob Agents Chemother, 2013 July; 57(7):2913-22. doi: 10.1128/AAC.02398-12). Briefly, 1 μl of compound was pre-dispensed into 384 well sterile intermediary plates. For single point screening, amphotericin B was added to all wells of column 24 as a positive control (final concentration 2 μM) and DMSO to column 23. For potency determinations, ten-point, one in three dilution curves were created with the highest concentration being 50 μM and on each plate a control curve of amphotericin B was included. Controls were as follows: columns 11 and 12: DMSO, columns 23 and 24: amphotericin B (final concentration 2 μM). To the intermediary plates, 100 μl of THP-1 media was added and plates were shaken for >5 min to ensure complete mixing. THP-1 cells (8,000 per well, 50 μl) were plated into black clear-bottom 384 well plates (Corning) in presence of 10 nM PMA. After 20 min at room temperature, the plates were incubated at 37° C. under 5% CO2 in a humidified incubator for 75 h. The cells were then washed with […] sterile phosphate buffered saline (PBS) supplemented with 1 mM CaCl2, 0.5 mM MgCl2, 0.1% (w/v) bovine serum albumin (PBS-A) and amastigotes were added to all wells at a multiplicity of infection of 5 (40,000 amastigotes per well). After 40 min at room temperature, plates were returned to the incubator. Amastigotes were incubated in the presence of macrophages for 16 h. Any remaining extracellular amastigotes were subsequently removed with an overflow wash of 1 ml PBS-A per well (wash buffer is being aspirated from the top of the well as it is being dispensed) followed by addition of 25 μl of the compound pre-dilutions using a Matrix Hydra DT pipetting station. The final dilution of each compound was 200-fold. Plates were incubated for 72 h and then washed (250 μl PBS-A) and fixed (4% (v/v) formaldehyde-PBS, 30 min, room temperature). After fixation, the wells were washed with 250 μl PBS, stained (10 μg/ml DAPI, 0.4 μg ml-1 HCS Cellmask Deep Red in PBS+0.1% (v/v) Triton X-100, 30 min, room temperature) and washed with 250 μl PBS. Finally, PBS+0.05% (v/v) thimerosal was added to the wells, the plates were sealed and imaged on a high-content microscope (GE IN Cell 1000 or GE IN Cell 2000) using a 10× objective. Image analysis was carried out with GE IN Cell Analyzer 1000 Workstation using the “Multi Target Analysis” module. […]

THP-1 cells = experiment: THP-1 host cell count in intramacrophage Leishmania assay; assay type: cell-based; settings: Homo sapiens, host cell toxicity, read-out: THP1 pEC50 (converted)
Description: The intramacrophage Leishmania assay was performed as described in de Rycker et al (Antimicrob Agents Chemother, 2013 July; 57(7):2913-22. doi: 10.1128/AAC.02398-12). Briefly, 1 μl of compound was pre-dispensed into 384 well sterile intermediary plates. For single point screening, amphotericin B was added to all wells of column 24 as a positive control (final concentration 2 μM) and DMSO to column 23. For potency determinations, ten-point, one in three dilution curves were created with the highest concentration being 50 μM and on each plate a control curve of amphotericin B was included. Controls were as follows: columns 11 and 12: DMSO, columns 23 and 24: amphotericin B (final concentration 2 μM). To the intermediary plates, 100 μl of THP-1 media was added and plates were shaken for >5 min to ensure complete mixing. THP-1 cells (8,000 per well, 50 μl) were plated into black clear-bottom 384 well plates (Corning) in presence of 10 nM PMA. After 20 min at room temperature, the plates were incubated at 37° C. under 5% CO2 in a humidified incubator for 75 h. The cells were then washed with […] sterile phosphate buffered saline (PBS) supplemented with 1 mM CaCl2, 0.5 mM MgCl2, 0.1% (w/v) bovine serum albumin (PBS-A) and amastigotes were added to all wells at a multiplicity of infection of 5 (40,000 amastigotes per well). After 40 min at room temperature, plates were returned to the incubator. Amastigotes were incubated in the presence of macrophages for 16 h. Any remaining extracellular amastigotes were subsequently removed with an overflow wash of 1 ml PBS-A per well (wash buffer is being aspirated from the top of the well as it is being dispensed) followed by addition of 25 μl of the compound pre-dilutions using a Matrix Hydra DT pipetting station. The final dilution of each compound was 200-fold. Plates were incubated for 72 h and then washed (250 μl PBS-A) and fixed (4% (v/v) formaldehyde-PBS, 30 min, room temperature). After fixation, the wells were washed with 250 μl PBS, stained (10 μg/ml DAPI, 0.4 μg ml-1 HCS Cellmask Deep Red in PBS+0.1% (v/v) Triton X-100, 30 min, room temperature) and washed with 250 μl PBS. Finally, PBS+0.05% (v/v) thimerosal was added to the wells, the plates were sealed and imaged on a high-content microscope (GE IN Cell 1000 or GE IN Cell 2000) using a 10× objective. Image analysis was carried out with GE IN Cell Analyzer 1000 Workstation using the “Multi Target Analysis” module. Settings for segmentation were as follows: nuclei: minimum area: 142.384 μm^2, sensitivity: 81, method: top-hat; cells: characteristic area: 2500 μm^2, sensitivity: 60, method: multiscale top-hat; organelles (amastigotes): granule size 1-3, 3 scales, sensitivity: 90, detection in entire cell. […]

Leishmania donovani [5] = experiment: Ld-cAxAm-TP-pMIC assay; assay type: cell-based; settings: read-out: Ld-cAxAm-TP-pMIC pEC50 (converted)
Trypanosoma cruzi = Trypanosoma cruzi intracellular imaging assay; assay type: cell-based; settings: read-out: Trypanosoma cruzi pEC50 (converted)
Excerpt: Assay Method for Measurement of In Vitro Inhibition of Trypanosoma cruzi. […] These experiments were run in accordance with the method of Pena et. al., Scientific Reports 5, Article number: 8771 (2015). Results from these experiments are provided in the Experimental Results hereinafter.

T1 sequence (Q8IDJ8 entry or part of it, looked up, natural form): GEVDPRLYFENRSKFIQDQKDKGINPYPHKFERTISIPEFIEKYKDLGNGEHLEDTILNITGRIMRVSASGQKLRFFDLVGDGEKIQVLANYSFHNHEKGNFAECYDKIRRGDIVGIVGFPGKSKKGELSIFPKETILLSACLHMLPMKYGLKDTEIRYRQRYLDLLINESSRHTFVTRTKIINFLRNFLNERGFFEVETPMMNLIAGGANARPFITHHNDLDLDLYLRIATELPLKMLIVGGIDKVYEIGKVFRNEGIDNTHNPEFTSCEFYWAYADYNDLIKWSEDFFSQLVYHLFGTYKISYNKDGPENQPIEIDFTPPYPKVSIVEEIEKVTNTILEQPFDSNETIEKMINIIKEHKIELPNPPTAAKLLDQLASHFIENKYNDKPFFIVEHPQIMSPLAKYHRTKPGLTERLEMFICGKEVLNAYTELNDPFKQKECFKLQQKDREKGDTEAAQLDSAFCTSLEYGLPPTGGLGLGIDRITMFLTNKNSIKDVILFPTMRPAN

| Compound | IC50 [1] [µM] | EC50 [2] [µM] | IC50 [3] [µM] | EC50 (Cryptosporidium parvum) [µM] | EC50 (Hep G2) [µM] | EC50 (Leishmania donovani [4]) [µM] | EC50 (THP-1 cells) [µM] | EC50 (Leishmania donovani [5]) [µM] | EC50 (Trypanosoma cruzi) [µM] |
| --- | --- | --- | --- | --- | --- | --- | --- | --- | --- |
| O=C(NC1CCCC(F)(F)C1)c1cc(=O)c2cc(F)cc(O)c2o1 (stereo not shown) [Example 76C, N-(3,3-Difluorocyclohexyl)-6-fluoro-8-hydroxy-4-oxo-4H-chromene-2-carboxamide] | 0.316 | 1 | 15.8 | 2 | 50.1 | – | – | – | – |
| O=C(NC1CCCCC1)c1cc(=O)c2cc(F)cc(O)c2o1 [Example 76B, N-cyclohexyl-6-fluoro-8-hydroxy-4-oxo-chromene-2-carboxamide] | 0.398 | 1.58 | 7.94 | – | – | – | – | – | – |
| O=C(NCC1(O)CCCCC1)c1cc(=O)c2cc(O)cc(F)c2o1 [Example 81, 8-fluoro-6-hydroxy-N-((1-hydroxycyclohexyl)methyl)-4-oxo-4H-chromene-2-carboxamide] | 0.2 | – | – | 0.126 | 15.8 | 20 | > 50.1 | 6.31 | – |
| O=C(NCC1CCC1)c1cc(=O)c2cc(F)cc(O)c2o1 [Example 76E, N-(cyclobutylmethyl)-6-fluoro-8-hydroxy-4-oxo-4H-chromene-2-carboxamide] | 0.251 | 0.794 | 31.6 | – | – | – | – | – | – |
| O=C(NCC1CCCCC1)c1cc(=O)c2cc(O)ccc2o1 [Example 6, N-(cyclohexylmethyl)-6-hydroxy-4-oxo-chromene-2-carboxamide] | 0.0631 | 0.158 | – | 0.126 | 15.8 | – | – | – | 0.02 |
| CCC(C)CNC(=O)c1cc(=O)c2cc(F)cc(O)c2o1 (stereo not shown) [Example 76H, 6-fluoro-8-hydroxy-N-(2-methylbutyl)-4-oxo-chromene-2-carboxamide] | 0.251 | 0.251 | 50.1 | – | – | – | – | – | – |
